From PMC4467398, “Preclinical antitumor activity of ST7612AA1: a new oral thiol-based histone deacetylase (HDAC) inhibitor” (Oncotarget, 2014)

Test system: DOHH2 and TMD8 DLBCL cells
Assay: Gene expression profiling (HumanHT-12 v4 BeadChip, limma), ST7612AA1 300 nM 8 hrs vs DMSO
Format: cell-based, human
Settings: 300 nM 8 hrs

Compound: CC(=O)SCCCCC[C@H](NC(=O)[C@H]1CCC(=O)N1)C(=O)Nc1ccccc1 [ST7612AA1]
- AveExpr.ST7612 1999-08-31 (probe ILMN_1659953): 8.50E-01
- AveExpr.ST7612 (probe ILMN_1816244): 7.08E-01
- AveExpr.ST7612 (probe ILMN_1827736): 8.76E-01
- AveExpr.ST7612 (probe ILMN_1909886): 7.98E-01
- AveExpr.ST7612 ABCA7 (probe ILMN_1743205): 7.64E-01
- AveExpr.ST7612 ADARB1 (probe ILMN_1679797): 7.60E-01
- AveExpr.ST7612 ALDH2 (probe ILMN_1793859): 8.03E-01
- AveExpr.ST7612 ALOX5 (probe ILMN_1680996): 8.46E-01
- AveExpr.ST7612 AMOT (probe ILMN_1792409): 7.65E-01
- AveExpr.ST7612 APAF1 (probe ILMN_1659463): 8.78E-01
- AveExpr.ST7612 APLP1 (probe ILMN_1763834): 8.17E-01
- AveExpr.ST7612 ARL6IP1 (probe ILMN_1708416): 6.93E-01
- AveExpr.ST7612 ATG2A (probe ILMN_1756006): 8.92E-01
- AveExpr.ST7612 ATP6V0C (probe ILMN_1773849): 8.22E-01
- AveExpr.ST7612 ATP6V1G2 (probe ILMN_1654541): 8.47E-01
- AveExpr.ST7612 ATP7B (probe ILMN_1722056): 8.88E-01
- AveExpr.ST7612 AVPI1 (probe ILMN_1671731): 8.94E-01
- AveExpr.ST7612 AZI1 (probe ILMN_1746206): 7.59E-01
- AveExpr.ST7612 BIK (probe ILMN_1770505): 7.57E-01
- AveExpr.ST7612 BLVRB (probe ILMN_1797793): 8.74E-01
- AveExpr.ST7612 BNIP3L (probe ILMN_1718961): 8.34E-01
- AveExpr.ST7612 BPHL (probe ILMN_1657746): 8.91E-01
- AveExpr.ST7612 C3orf34 (probe ILMN_1665217): 6.96E-01
- AveExpr.ST7612 C4orf32 (probe ILMN_1700257): 8.83E-01
- AveExpr.ST7612 C12orf52 (probe ILMN_1667857): 6.98E-01
- AveExpr.ST7612 C13orf15 (probe ILMN_1658494): 7.74E-01
- AveExpr.ST7612 C14orf173 (probe ILMN_2393450): 7.70E-01
- AveExpr.ST7612 C14orf179 (probe ILMN_1756877): 7.81E-01
- AveExpr.ST7612 CA2 (probe ILMN_2199439): 7.93E-01
- AveExpr.ST7612 CAMLG (probe ILMN_1714599): 7.30E-01
- AveExpr.ST7612 CASC4 (probe ILMN_2325574): 6.85E-01
- AveExpr.ST7612 CBX7 (probe ILMN_1657361): 7.49E-01
- AveExpr.ST7612 CCDC24 (probe ILMN_1718771): 6.89E-01
- AveExpr.ST7612 CCDC92 (probe ILMN_1731107): 8.05E-01
- AveExpr.ST7612 CD74 (probe ILMN_1761464): 8.47E-01
- AveExpr.ST7612 CD74 (probe ILMN_2379644): 7.27E-01
- AveExpr.ST7612 CDC2L6 (probe ILMN_1676891): 6.96E-01
- AveExpr.ST7612 CDC42EP5 (probe ILMN_1774982): 8.75E-01
- AveExpr.ST7612 CDK2AP2 (probe ILMN_1690653): 8.01E-01
- AveExpr.ST7612 CECR1 (probe ILMN_1751851): 8.43E-01
- AveExpr.ST7612 CLCC1 (probe ILMN_1671933): 8.48E-01
- AveExpr.ST7612 CLIC4 (probe ILMN_2063586): 7.49E-01
- AveExpr.ST7612 CMTM8 (probe ILMN_1710124): 7.00E-01
- AveExpr.ST7612 COTL1 (probe ILMN_1788283): 6.87E-01
- AveExpr.ST7612 CRIP1 (probe ILMN_1656920): 8.56E-01
- AveExpr.ST7612 CRYM (probe ILMN_1779241): 8.32E-01
- AveExpr.ST7612 CSRP1 (probe ILMN_1811921): 7.01E-01
- AveExpr.ST7612 CSTB (probe ILMN_1761797): 8.06E-01
- AveExpr.ST7612 CTSB (probe ILMN_2359742): 8.56E-01
- AveExpr.ST7612 CXADR (probe ILMN_1796925): 8.18E-01
- AveExpr.ST7612 CXorf57 (probe ILMN_1703279): 8.25E-01
- AveExpr.ST7612 CYB5R1 (probe ILMN_1729237): 7.59E-01
- AveExpr.ST7612 CYB5R3 (probe ILMN_1740441): 7.06E-01
- AveExpr.ST7612 CYP2R1 (probe ILMN_2119774): 7.88E-01
- AveExpr.ST7612 DEF8 (probe ILMN_1767509): 8.37E-01
- AveExpr.ST7612 DGCR6L (probe ILMN_3245688): 7.47E-01
- AveExpr.ST7612 DNMT3B (probe ILMN_1794692): 8.14E-01
- AveExpr.ST7612 DSTN (probe ILMN_1706426): 7.52E-01
- AveExpr.ST7612 DYNC1H1 (probe ILMN_1780302): 6.97E-01
- AveExpr.ST7612 DYNLL2 (probe ILMN_1772796): 8.61E-01
- AveExpr.ST7612 DYRK3 (probe ILMN_2400322): 6.97E-01
- AveExpr.ST7612 DYRK3 (probe ILMN_2400326): 8.26E-01
- AveExpr.ST7612 ECHS1 (probe ILMN_1718132): 7.78E-01
- AveExpr.ST7612 EGR1 (probe ILMN_1762899): 8.42E-01
- AveExpr.ST7612 ELOF1 (probe ILMN_1723185): 7.14E-01
- AveExpr.ST7612 ENC1 (probe ILMN_1779147): 7.93E-01
- AveExpr.ST7612 ENO2 (probe ILMN_1765796): 7.11E-01
- AveExpr.ST7612 ERRFI1 (probe ILMN_1665510): 7.44E-01
- AveExpr.ST7612 ESAM (probe ILMN_1668092): 7.54E-01
- AveExpr.ST7612 F11R (probe ILMN_2342033): 8.81E-01
- AveExpr.ST7612 FAM65A (probe ILMN_1680037): 7.70E-01
- AveExpr.ST7612 FAM116B (probe ILMN_1659029): 7.74E-01
- AveExpr.ST7612 FAM120B (probe ILMN_1679641): 7.62E-01
- AveExpr.ST7612 FAM149B1 (probe ILMN_3245452): 7.21E-01
